Among the data in patent publication US9981916B2 (Genentech, Inc., priority 2013, dated 2018) are IC50 values, retold here.

The target in this assay is T1, RORc ligand binding domain (Homo sapiens, UniProt P51449).
T1 construct: host or cells: E. coli
T1 sequence (P51449 269-508 limits assumed): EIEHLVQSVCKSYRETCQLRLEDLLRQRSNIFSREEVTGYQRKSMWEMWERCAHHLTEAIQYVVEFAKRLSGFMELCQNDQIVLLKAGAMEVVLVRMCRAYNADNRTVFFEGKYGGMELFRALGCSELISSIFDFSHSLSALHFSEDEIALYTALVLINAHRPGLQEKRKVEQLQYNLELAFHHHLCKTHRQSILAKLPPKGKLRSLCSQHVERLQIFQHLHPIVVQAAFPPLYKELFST
The assay is described as follows: In vitro RORc ligand binding assay (25-[3H]hydroxycholesterol displacement, filter binding). The conditions noted are these: 6 nM 25-[3H]hydroxycholesterol, 0.6 ug/mL RORc receptor, 3 h at 25° C. The essentials: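 Compounds in 5% DMSO, either dose-response or screened at 1 and 10 uM, competed with 6 nM 25-[3H]hydroxycholesterol for 0.6 ug/mL RORc over 3 h at 25° C (HEPES pH 7.4, NaCl, MgCl2, DTT, BSA buffer). Bound tracer was filter-harvested and counted; nonspecific binding came from 1 uM 25-hydroxycholesterol.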
As a reminder, the IC50 is the concentration needed to halve the response being measured. Lower therefore signals greater potency in that assay. Compound `Cc1c[nH]nc1C1CN(C(=O)[C@]23CC[C@H](c4cc(-c5ccccc5F)nnc42)C3(C)C)C1` [Example 335, ((5S,8S)-3-(2-fluorophenyl)-9,9-dimethyl-5,6,7,8-tetrahydro-5,8-methanocinnolin-8-yl)(3-(4-methyl-1H-pyrazol-3-yl)azetidin-1-yl)methanone] returned an IC50 of 2800 nM. The compound `Cc1nnc([C@@]23CC[C@@H](c4cc(Oc5c(F)cccc5F)nnc42)C3(C)C)o1` [Example 336, 2-((5R,8R)-3-(2,6-difluorophenoxy)-9,9-dimethyl-5,6,7,8-tetrahydro-5,8-methanocinnolin-8-yl)-5-methyl-1,3,4-oxadiazole] displayed an IC50 of 49 nM. In turn, `CC1(C)[C@H]2CC[C@]1(C(=O)N1CCC1)c1nnc(Oc3c(F)cccc3F)cc12` [Example 337, azetidin-1-yl((5R,8R)-3-(2,6-difluorophenoxy)-9,9-dimethyl-5,6,7,8-tetrahydro-5,8-methanocinnolin-8-yl)methanone] gave an IC50 of 540 nM.

In the case of `CC1(C)[C@H]2CC[C@]1(COCc1ccccc1)c1nnc(Oc3c(F)cccc3F)cc12` [Example 338, (5R,8R)-8-((benzyloxy)methyl)-3-(2,6-difluorophenoxy)-9,9-dimethyl-5,6,7,8-tetrahydro-5,8-methanocinnoline], the IC50 is 66 nM. `CC(=O)OC[C@@]12CC[C@@H](c3cc(Oc4c(F)cccc4F)nnc31)C2(C)C` [Example 339, ((5R,8R)-3-(2,6-difluorophenoxy)-9,9-dimethyl-5,6,7,8-tetrahydro-5,8-methanocinnolin-8-yl)methyl acetate] registered an IC50 of 100 nM. For `CCN(C[C@]12CC[C@H](c3cc(-c4c(F)cccc4F)nnc31)C2(C)C)C(=O)CCC(N)=O` [Example 342, N1-(((5S,8R)-3-(2,6-difluorophenyl)-9,9-dimethyl-5,6,7,8-tetrahydro-5,8-methanocinnolin-8-yl)methyl)-N1-ethylsuccinamide], the IC50 was 28 nM. In the case of `CCN(C[C@]12CC[C@H](c3cc(-c4c(F)cccc4F)nnc31)C2(C)C)C(=O)CCNC(N)=O` [Example 343, N-(((5S,8R)-3-(2,6-difluorophenyl)-9,9-dimethyl-5,6,7,8-tetrahydro-5,8-methanocinnolin-8-yl)methyl)-N-ethyl-3-ureidopropanamide], the IC50 is 32 nM. `CCN(C[C@]12CC[C@H](c3cc(-c4c(F)cccc4F)nnc31)C2(C)C)C(=O)CCC(=O)N(C)C` [Example 344, N1-(((5S,8R)-3-(2,6-difluorophenyl)-9,9-dimethyl-5,6,7,8-tetrahydro-5,8-methanocinnolin-8-yl)methyl)-N1-ethyl-N4,N4-dimethylsuccinamide]: the half-maximal inhibitory concentration (IC50) was 31 nM.

Regarding `CCN(C[C@@]12CC[C@@H](c3cc(-c4c(F)cccc4F)nnc31)C2(C)C)S(=O)(=O)CCC(F)(F)F` [Example 345, N-(((5R,8S)-3-(2,6-difluorophenyl)-9,9-dimethyl-5,6,7,8-tetrahydro-5,8-methanocinnolin-8-yl)methyl)-N-ethyl-3,3,3-trifluoropropane-1-sulfonamide], the half-inhibitory concentration (IC50) came to 11 nM.
